Results reported in patent publication US9725442B2, “Heterocyclic derivative having PGD2 receptor antagonist activity” (Shionogi & Co., Ltd., priority 2011, dated 2017).
Like-named read-outs stand apart in the source and are kept apart here.

Assays:
[1] = target: T1, CRTH2 (Homo sapiens (Human), UniProt Q9Y5Y4); test: CRTH2 inhibitory activity in human eosinophil (PGD2 induced eosinophil shape change); type: cell-based; conditions: human peripheral blood, 40 nM PGD2, forward scatter; read-out: IC50, inhibition of PGD2 induced eosinophil shape change
T1 sequence (Q9Y5Y4 whole entry): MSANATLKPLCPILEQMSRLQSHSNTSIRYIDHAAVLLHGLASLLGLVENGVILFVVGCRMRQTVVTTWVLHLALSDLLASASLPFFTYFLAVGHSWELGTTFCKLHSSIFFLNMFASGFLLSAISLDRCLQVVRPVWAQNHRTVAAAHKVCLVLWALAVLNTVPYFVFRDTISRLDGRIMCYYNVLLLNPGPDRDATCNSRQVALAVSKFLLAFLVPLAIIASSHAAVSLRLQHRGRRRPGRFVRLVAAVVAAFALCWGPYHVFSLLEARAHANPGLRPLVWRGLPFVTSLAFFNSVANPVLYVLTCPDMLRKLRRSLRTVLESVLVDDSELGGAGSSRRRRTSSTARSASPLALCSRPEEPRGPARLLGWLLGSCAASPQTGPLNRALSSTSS
Method: CRTH2 inhibitory activity in human eosinophil was determined as inhibitory activity of PGD2 induced eosinophil shape change.
Human peripheral blood was mixed with compounds of the present invention at 37° C. After 5 min, the blood was treated with 40 nM of PGD2 for 10 min and fixed. The blood was hemolyzed and centrifuged. Blood cells were resuspended in PBS and measured forward scatter (FS) using flow cytometer (FACSAria). Inhibition ratio was defined by comparing FS with and without compound, and IC50 for each compound was calculated from inhibitory curve.

[2] = target: Human DP1 receptor (Homo sapiens (Human), UniProt Q13258); test: Human DP1 inhibitory activity in DP1-expressing cell (PGD2-induced cAMP); type: cell-based
Chain of Human DP1 receptor (Q13258 whole entry): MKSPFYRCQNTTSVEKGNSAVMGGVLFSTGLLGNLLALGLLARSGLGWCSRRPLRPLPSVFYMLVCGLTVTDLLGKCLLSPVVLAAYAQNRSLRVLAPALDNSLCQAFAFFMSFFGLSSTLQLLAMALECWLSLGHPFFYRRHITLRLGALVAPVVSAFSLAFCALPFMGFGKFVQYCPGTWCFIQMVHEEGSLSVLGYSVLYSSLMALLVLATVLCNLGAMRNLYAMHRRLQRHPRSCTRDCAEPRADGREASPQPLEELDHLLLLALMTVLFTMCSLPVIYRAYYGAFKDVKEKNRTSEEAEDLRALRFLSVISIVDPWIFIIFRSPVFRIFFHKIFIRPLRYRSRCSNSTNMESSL
Method: Compounds were categorized as AA (cAMP is less than 100 nM) and A (cAMP is more than 100 nM and less than 5000 nM) as shown in Table 99 and 100.

[3] = target: DP receptor (Homo sapiens (Human), UniProt Q13258); test: DP inhibitory activity in human platelets (PGD2-induced cAMP increase in platelet rich plasma, HTRF); type: cell-based; conditions: IC50 of PGD2 (300 nM)-induced cAMP increase, read-out: PRP
Chain of DP receptor (Q13258 whole entry): as above
Method: Thirty milliliter of blood was drown from healthy human into a syringe preloaded with 1/9 volume of 3.8% citrate sodium. The blood was centrifuged with 180 g for 10 min at room temperature and the upper plasma layer was collected as platelet rich plasma (PRP). The PRP was transferred to plate and treated with 3-isobutyl-1-methylxanthin (IBMX; […]) for 5 min. Then the compounds of the present invention were added to the plate and after 10 min, 300 nM of PGD2 was added. The reaction was stopped with 1 mmol/l hydrogenchlolide after 2 min of PGD2 addition, and platelet was lysed by adding 12% Triton X-100. The concentration of cAMP in the supernatant of the platelet lysate was quantified using homogenous time resolved fluorescence (HTRF). Inhibition ratio was defined by cAMP increase with and without compound, and […] for each compound was calculated from inhibitory curve.

[4] = target: T1, CRTH2; test: CRTH2 inhibitory activity in CRTH2-expressing cells (PGD2-induced intracellular calcium increase, K562); type: cell-based; conditions: 200 nM PGD2, read-out: IC50, inhibition of intracellular calcium concentration increase induced by PGD2
Method: CRTH2 inhibitory activities of compounds were determined as inhibition activity of intra-cellular calcium concentration increase induced by PGD2 in CRTH2-expressing cells.
CRTH2-expressing K562 cells were suspended at concentration of 2×10^6 cells/ml in buffer (10 mM HEPES, pH 7.4, 0.1% Bovine serum albumin). Cells were incubated with […] (4 μM) for 30 min at room temperature. Cells were washed, resuspended and mixed with various concentration of compounds of the present invention. After 2 min, cells were treated with 200 nM of PGD2. Then intracellular calcium concentration was measured using intracellular ion analyzer (FDSS3000). Inhibition ratio was defined by comparing intracellular calcium concentration increase with and without compound, and IC50 for each compound was calculated from inhibitory curve.

[5] = target: T1, CRTH2; test: CRTH2 receptor binding inhibitory activity ([3H]-PGD2 displacement, membranes of CRTH2-expressing K562 cell); conditions: [3H]-PGD2 displacement, membrane of CRTH2-expressing K562 cell, read-out: Ki
Outline: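 Incubation ran 60 min at room temperature using 20 μg/well membrane from CRTH2-expressing K562 cells in pH 7.4 Tris/HCl (50 mM) with 10 mM MgCl2.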

[6] = Solubility test (1% DMSO addition, artificial intestinal juice pH 6.8); type: physicochemical; conditions: fassgf or other biorelevant, kinetic from dmso stock, artificial intestinal juice pH 6.8, 16 hours at 25° C.
Method: A 10 mmol/L solution of the compound of the present invention is prepared with DMSO, and 6 μL of the compound solution is added to 594 μL of an artificial intestinal juice (water and 118 mL of 0.2 mol/L NaOH reagent are added to 250 mL of 0.2 mol/L potassium dihydrogen phosphate reagent to reach 1000 mL) with a pH of 6.8. The mixture is left standing for 16 hours at 25° C., and the mixture is vacuum-filtered. The filtrate is two-fold diluted with methanol/water=1/1 (V/V), and the compound concentration in the filtrate is measured with HPLC or LC/MS/MS by the absolute calibration method.

[7] = target: CYP3A4 enzyme expressed in Escherichia coli (Homo sapiens (Human), UniProt P08684); test: CYP3A4 fluorescent MBI test; type: in vitro ADME; conditions: pre-reaction time 0 or 30 minutes, substrate 7-BFC; read-out: CYP3A4 MBI, difference between IC50 values with and without preincubation
Chain of CYP3A4 enzyme expressed in Escherichia coli (P08684 whole entry): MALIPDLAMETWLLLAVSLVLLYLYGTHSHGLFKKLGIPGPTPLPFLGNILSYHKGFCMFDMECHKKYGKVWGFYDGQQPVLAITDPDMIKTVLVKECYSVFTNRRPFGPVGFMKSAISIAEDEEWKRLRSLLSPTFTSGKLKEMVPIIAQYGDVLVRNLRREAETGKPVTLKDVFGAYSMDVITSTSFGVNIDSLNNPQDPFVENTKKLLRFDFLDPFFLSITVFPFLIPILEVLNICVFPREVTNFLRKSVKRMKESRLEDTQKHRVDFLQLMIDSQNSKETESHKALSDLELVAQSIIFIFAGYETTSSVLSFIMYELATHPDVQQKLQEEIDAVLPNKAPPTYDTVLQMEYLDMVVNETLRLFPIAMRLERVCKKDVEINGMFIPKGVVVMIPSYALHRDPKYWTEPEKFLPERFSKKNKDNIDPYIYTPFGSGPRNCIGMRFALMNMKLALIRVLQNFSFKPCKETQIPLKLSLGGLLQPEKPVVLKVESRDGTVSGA
Method: The CYP3A4 fluorescent MBI test is a test of investigating enhancement of CYP3A4 inhibition of a compound by a metabolism reaction, and the test was performed using, as CYP3A4 enzyme expressed in Escherichia coli and employing, as an index, a reaction in which 7-benzyloxytrifluoromethylcoumarin (7-BFC) is debenzylated by the CYP3A4 enzyme to produce a metabolite, 7-hydroxytrifluoromethylcoumarin (HFC) emitting fluorescent light.
The reaction conditions were as follows: substrate, 5.6 μmol/L 7-BFC; pre-reaction time, 0 or 30 minutes; reaction time, 15 minutes; reaction temperature, 25° C. (room temperature); CYP3A4 content (expressed in Escherichia coli), at pre-reaction […], at reaction […] (at 10-fold dilution); concentration of a compound of the present, 0.625, 1.25, 2.5, 5, 10, 20 μmol/L (six points).
An enzyme in a K-Pi buffer (pH 7.4) and a compound solution of the present invention as a pre-reaction mixture were added to a 96-well plate at the composition of the pre-reaction, a part of it was transferred to another 96-well plate so that it was 1/10 diluted by a substrate in a K-Pi buffer, NADPH as a co-factor was added to initiate a reaction as an index (without preincubation) and, after a predetermined time of a reaction, acetonitrile/0.5 mol/L Tris(trishydroxyaminomethane)=4/1 (V/V) was added to stop the reaction. In addition, NADPH was added to a remaining preincubation solution to initiate a preincubation (with preincubation) and, after a predetermined time of a preincubation, a part was transferred to another plate so that it was 1/10 diluted with a substrate and a K-Pi buffer to initiate a reaction as an index. After a predetermined time of a reaction, acetonitrile/0.5 mol/L Tris(trishydroxyaminomethane)=4/1 (V/V) was added to stop the reaction. For the plate on which each index reaction had been performed, a fluorescent value of 7-HFC which is a metabolite was measured with a fluorescent plate reader. (Ex=420 nm, Em=535 nm).

[8] = IC50 of PGD2 (60 nM)-induced cAMP increase, human DP1 receptor expressing Jurkut cell
[9] = category of cAMP IC50, human DP1 receptor expressing Jurkut cell
[10] = CRTH2 receptor binding, categorized AAAA/AAA

| IC50 [1] [nM] | IC50 [2, 8] [nM] | IC50 [2, 9] [nM] | IC50 [3] [nM] | IC50 [4] [nM] | Ki [5, 10] [nM] | Ki [5] [nM] | solubility at 16 h [6] [µM] | difference in IC50 with vs without preincubation [7] [nM] | SMILES |
| --- | --- | --- | --- | --- | --- | --- | --- | --- | --- |
| 13 |  | < 100 |  |  | < 100 |  |  |  | CC(C)Oc1ccc(S(=O)(=O)N2C[C@H](C)[C@@H](n3nc(CC(=O)O)c4ccc(F)cc43)C2)cc1 [Compound I-31] |
|  | 58 | < 100 | 44 |  | < 100 | 15 |  |  | CCOc1ccc(S(=O)(=O)N2C[C@@H](C)[C@@H](n3nc(CC(=O)O)c4ccccc43)C2)s1 [Compound I-177] |
|  | 13 | < 100 | 70 |  | 100 to 5000 |  |  |  | CCOc1ccc(S(=O)(=O)N2C[C@@H](C)[C@@H](n3nc(CC(=O)O)c4c(C)cccc43)C2)cc1 [Compound I-205] |
|  | 27 | < 100 | 68 |  | < 100 |  |  |  | CCOc1ccc(S(=O)(=O)N2C[C@@H](C)[C@@H](n3nc(CC(=O)O)c4ccccc43)C2)c(F)c1 [Compound I-245] |
|  |  | < 100 |  |  | < 100 |  |  | ≤ 3000 | CCOc1ccc(S(=O)(=O)N2C[C@@H](C)[C@@H](n3cc(CC(=O)O)c4ccc(C#N)cc43)C2)cc1 [Compound I-256] |
|  | 50 | < 100 | 130 |  | < 100 | 55 |  |  | CCOc1ccc(S(=O)(=O)N2C[C@@H](C)[C@@H](n3nc(C(C)C(=O)O)c4ccccc43)C2)cc1 (stereo partly drawn) [Compound I-284] |
|  |  | 100 to 5000 |  |  | < 100 |  |  | ≤ 3000 | Cc1c(CC(=O)O)c2ccccc2n1[C@H]1CN(S(=O)(=O)c2ccc(F)cc2)C[C@H]1C [Compound I-287] |
|  | 24 | < 100 | 210 |  | < 100 | 28 |  |  | CCOc1ccc(S(=O)(=O)N2C[C@@H](C)[C@@H](n3nc(CC(=O)O)c4ccccc43)C2)c(N)c1 [Compound I-325] |
|  |  | < 100 |  |  | < 100 |  |  | ≤ 3000 | CCOc1ccc(S(=O)(=O)N2C[C@@H](C)[C@@H](n3c(C)c(CC(=O)O)c4ccccc43)C2)cc1 [Compound I-329] |
|  | 35 | < 100 | 180 |  | 100 to 5000 | 440 |  |  | CCOc1ccc(S(=O)(=O)N2C[C@@H](C)[C@@H](n3nc(C4(C(=O)O)CC4)c4ccccc43)C2)cc1 [Compound I-336] |

More lines, now with the values behind:

| SMILES | IC50 [1] [nM] | IC50 [2, 8] [nM] | IC50 [2, 9] [nM] | IC50 [3] [nM] | IC50 [4] [nM] | Ki [5, 10] [nM] | Ki [5] [nM] | solubility at 16 h [6] [µM] | difference in IC50 with vs without preincubation [7] [nM] |
| --- | --- | --- | --- | --- | --- | --- | --- | --- | --- |
| CC(C)Oc1ccc(S(=O)(=O)N2C[C@H](n3nc(CC(=O)O)c4ccc(F)cc43)[C@@](C)(F)C2)cc1 (racemic) [Compound I-85] | 33 | 19 | < 100 | 210 | 140 | < 100 | 2.8 | > 50 |  |
| CCOc1ccc(S(=O)(=O)N2C[C@@H](C)[C@@H](n3nc(CC(=O)O)c4ccccc43)C2)cc1 [Compound I-97] | 68 |  | < 100 |  | 92 | < 100 | 13 |  |  |
| CC(C)Oc1ccc(S(=O)(=O)N2C[C@@H](C)[C@@H](n3nc(CC(=O)O)c4ccc(F)cc43)C2)cn1 [Compound I-123] | 60 | 31 | < 100 | 120 | 91 | < 100 | 4.3 |  |  |
| CC(C)Oc1ccc(S(=O)(=O)N2C[C@@H](C)[C@@H](n3nc(CC(=O)O)c4ccc(C(F)(F)F)cc43)C2)cc1 [Compound I-130] | 46 | 10 | < 100 | 240 | 73 | < 100 | 4.7 |  |  |
| CC(C)Oc1ccc(S(=O)(=O)N2C[C@@H](C)[C@@H](n3nc(CC(=O)O)c4ccc(C(F)(F)F)cc43)C2)cn1 [Compound I-131] |  | 31 | < 100 | 190 | 210 | < 100 | 7.4 |  |  |
| CCOc1ncc(S(=O)(=O)N2C[C@@H](C)[C@@H](n3nc(CC(=O)O)c4ccc(F)cc43)C2)s1 [Compound I-166] |  | 32 | < 100 | 55 |  | < 100 | 12 |  |  |
| CCOc1ccc(S(=O)(=O)N2C[C@@H](C)[C@@H](n3nc(CC(=O)O)c4ccc(N5CCCC5)cc43)C2)cn1 [Compound I-222] |  | 95 | < 100 | 140 |  | 100 to 5000 | 100 |  |  |
| CCOc1ccc(S(=O)(=O)N2C[C@H](n3nc(CC(=O)O)c4ccccc43)C[C@@H]2C#N)cc1 [Compound I-322] |  | 29 | < 100 | 12 |  | 100 to 5000 | 270 |  |  |
| CCOc1ccc(S(=O)(=O)N2C[C@H](n3nc(CC(=O)O)c4ccccc43)CC23COC3)cc1 [Compound I-353] |  | 120 | 100 to 5000 | 37 |  | 100 to 5000 | 400 |  |  |
